Test results published in ChEMBL document CHEMBL1143350, “Structure and activity of (2,8)-dicarba-(3,12)-cystino alpha-ImI, an alpha-conotoxin containing a nonreducible cystine analogue” (J Med Chem, 2009).
Calls of active or inactive are those of the source. The calls are words filed in the database; no cut-off is given here.

Columns and labels:
[1] = target: Neuronal acetylcholine receptor subunit alpha-7 (Rattus norvegicus) (UniProt Q05941); experiment: Activation of rat alpha7 nAChR expressed in Xenopus laevis oocytes at 2.5 uM; format: cell-based; conditions: Oocyte
Neuronal acetylcholine receptor subunit alpha-7 (Rattus norvegicus), sequence (Q05941 whole entry): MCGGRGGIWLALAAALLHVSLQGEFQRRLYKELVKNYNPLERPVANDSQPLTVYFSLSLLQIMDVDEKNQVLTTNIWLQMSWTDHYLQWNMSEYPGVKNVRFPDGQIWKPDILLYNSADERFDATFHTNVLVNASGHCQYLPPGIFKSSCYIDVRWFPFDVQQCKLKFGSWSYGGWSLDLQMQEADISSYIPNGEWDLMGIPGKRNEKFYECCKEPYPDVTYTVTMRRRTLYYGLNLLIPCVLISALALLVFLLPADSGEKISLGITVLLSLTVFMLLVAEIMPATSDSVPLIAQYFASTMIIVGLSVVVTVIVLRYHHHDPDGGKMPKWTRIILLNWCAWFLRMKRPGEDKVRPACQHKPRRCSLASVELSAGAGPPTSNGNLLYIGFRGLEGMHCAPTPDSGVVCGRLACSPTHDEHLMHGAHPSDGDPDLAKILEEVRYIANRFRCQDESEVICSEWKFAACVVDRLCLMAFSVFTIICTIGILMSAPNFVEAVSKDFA

Bos taurus [2] = species: Bos taurus; experiment: (§1) Antagonist activity at nAChR in nicotine-stimulated bovine adrenal chromaffin cells assessed as inhibition of adrenaline release preincubated for 5 mins before nicotine challenge by RP-HPLC; format: functional
[3] = as §1; format: functional; conditions: Bos taurus
Bos taurus [4] = species: Bos taurus; experiment: (§2) Antagonist activity at nAChR in nicotine-stimulated bovine adrenal chromaffin cells assessed as inhibition of noradrenaline release preincubated for 5 mins before nicotine challenge by RP-HPLC; format: functional
[5] = as §2; format: functional; conditions: Bos taurus
[6] = target: Neuronal acetylcholine receptor subunit alpha-7 (Rattus norvegicus) (UniProt Q05941); experiment: Antagonist activity at rat alpha7 nAChR expressed in Xenopus laevis oocytes assessed as inhibition of acetylcholine-evoked ion current at 2.5 uM treated 3 mins prior to acetylcholine challenge measured after 2 to 4 days by two-electrode voltage clamp method; format: functional, cell-based; parameters: scale not given: the % may be the effect or the level left; conditions: Oocyte

| SMILES | Activity [1] | Activity (Bos taurus [2]) | IC50 [3] [µM] | Activity (Bos taurus [4]) | IC50 [5] [µM] | Activity [6] |
| --- | --- | --- | --- | --- | --- | --- |
| C=CN(CC(=O)NC1C/C=C\CC2NC(=O)[C@H](CCCNC(=N)N)NC(=O)[C@@H]3CCCN3C(=O)[C@H](CC(=O)O)NC(=O)[C@H](CO)NC(=O)[C@H](CSSC[C@@H](C(=O)O)NC(=O)[C@H](CCCNC(=N)N)NC(=O)[C@H](Cc3c[nH]c4ccccc34)NC(=O)[C@H](C)NC2=O)NC1=O)C(=O)CN (single isomer, unassigned; isomer I) | inactive | Dose-dependent effect | 10 | Dose-dependent effect | 17 | 60% |
| C=CN(CC(=O)NC1C/C=C/CC2NC(=O)[C@H](CCCNC(=N)N)NC(=O)[C@@H]3CCCN3C(=O)[C@H](CC(=O)O)NC(=O)[C@H](CO)NC(=O)[C@H](CSSC[C@@H](C(=O)O)NC(=O)[C@H](CCCNC(=N)N)NC(=O)[C@H](Cc3c[nH]c4ccccc34)NC(=O)[C@H](C)NC2=O)NC1=O)C(=O)CN (single isomer, unassigned) |  | Dose-dependent effect | 15 | Dose-dependent effect | 20 | inactive |
| C[C@H](NC(=O)[C@H](CS)NC(=O)[C@H](CCCNC(=N)N)NC(=O)[C@@H]1CCCN1C(=O)[C@H](CC(=O)O)NC(=O)[C@H](CO)NC(=O)[C@H](CS)NC(=O)[C@H](CS)NC(=O)CN)C(=O)N[C@@H](Cc1c[nH]c2ccccc12)C(=O)N[C@@H](CCCNC(=N)N)C(=O)N[C@@H](CS)C(N)=O | inactive | Dose-dependent effect | 1.12 | Dose-dependent effect | 0.87 | 68% |
